Measured values published in patent publication US20260048043A1, “HIGH LOADING ORAL FILM FORMULATION WITH IMPROVED BIOAVAILABILITY” (INTELGENX CORP., priority 2022, published 2026).

Assay: Compatibility of maropitant with polyacid polymers (precipitate formation)
Assay type: physicochemical
Conditions: neutral pH

COc1ccc(C(C)(C)C)cc1CN[C@H]1C2CCN(CC2)[C@H]1C(c1ccccc1)c1ccccc1 [Maropitant, (2S,3S)-(Diphenylmethyl)-N-[2-methoxy-5-(2-methyl-2-propanyl)benzyl]quinuclidin-3-amine]
precipitate formation with polyacid polymer(s) such as CMC, Carbomer and polycarbophil: precipitate was formed
